Measurements reported in US20260242419A1, “A CYCLIC PEPTIDE FOR TRAPPING INTERLEUKIN-1 BETA” (Merck Sharp & Dohme LLC, priority 2023, published 2026).
Like-named read-outs stand apart in the source and are kept apart here. Starred links: 1 amine or outer side, 2 acyl side, 3 side chain; linkers in the order of their positions; H or OH if unused. Non-standard residues stand in square brackets, D forms with d. Residues, ends and D or L forms follow the SMILES beside them. Phe(4-(5-CO2H-2-pyrimidyl)) = N[C@@H](Cc1ccc(-c2ncc(C(=O)O)cn2)cc1)C(=O)O; dPro(4R-(4-pyridylmethyl)) = O=C(O)[C@H]1C[C@@H](Cc2ccncc2)CN1; Trp(βS-Me,4-F) = C[C@@H](c1c[nH]c2cccc(F)c12)[C@H](N)C(=O)O; X48 = O=C([C@H]1[C@@H](Cc2ccc(-c3cccnc3)cc2)CCN1[*:1])[*:2]; Bip(4'-COOH) = N[C@@H](Cc1ccc(-c2ccc(C(=O)O)cc2)cc1)C(=O)O; Ala(1-bicyclo(1.1.1)pentyl) = N[C@@H](CC12CC(C1)C2)C(=O)O; dPro(4R-Bzl(4-F)) = O=C(O)[C@H]1C[C@@H](Cc2ccc(F)cc2)CN1; dPro(3S-(4-F-Bn)) = O=C(O)[C@@H]1NCC[C@@H]1Cc1ccc(F)cc1; X4 = O=C([C@H]1[C@@H](Cc2ccncc2)CCN1[*:1])[*:2]; Ala(morpholin-4-yl) = N[C@@H](CN1CCOCC1)C(=O)O; Ala(pyrimidin-5-yl) = N[C@@H](Cc1cncnc1)C(=O)O; Phe(4-COOH) = N[C@@H](Cc1ccc(C(=O)O)cc1)C(=O)O; Ala(4-Pyridazinyl) = N[C@@H](Cc1ccnnc1)C(=O)O; X25 = C[N+](C)(C)CCC[C@H](N[*:1])C(=O)[*:2]; Bip = N[C@@H](Cc1ccc(-c2ccccc2)cc1)C(=O)O; Pro(cis-4-F) = O=C(O)[C@@H]1C[C@H](F)CN1; Ala(4-THP) = N[C@@H](CC1CCOCC1)C(=O)O; X6 = O=C([C@H](Cc1ccncn1)N[*:1])[*:2]; AEF = NCCOc1ccc(C[C@H](N)C(=O)O)cc1; d(αMeD) = C[C@@](N)(CC(=O)O)C(=O)O; 4Pal = N[C@@H](Cc1ccncc1)C(=O)O; αMeD = C[C@](N)(CC(=O)O)C(=O)O; Dab = NCC[C@H](N)C(=O)O; Dap = NC[C@H](N)C(=O)O; Aib = CC(C)(N)C(=O)O

Biological target: T1, IL-1β (Homo sapiens, UniProt P01584)
T1 construct: purchased BioLegend 579404
T1 sequence (P01584 117-269): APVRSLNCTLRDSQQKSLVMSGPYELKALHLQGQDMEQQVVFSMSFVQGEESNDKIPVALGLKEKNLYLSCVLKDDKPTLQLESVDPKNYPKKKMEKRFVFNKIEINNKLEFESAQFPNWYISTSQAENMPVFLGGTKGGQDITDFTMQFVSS
Experiment: IL-6 assay in MRC5 cells: inhibition of IL-1β induced IL-6 secretion (AlphaLISA)
Format: cell-based
Conditions: inhibition of IL-1β induced IL-6 secretion in MRC5 cells, read-out: MRC5 IC50
Outline: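 Compound was pre-incubated 1 h at ambient temperature with recombinant human IL-1β at 2λ EC80 before adding human lung fibroblast MRC5 cells (3000/well) in EMEM with 0.025% BSA. After overnight culture at 37 °C, 5% CO2, secreted IL-6 in conditioned medium was measured by AlphaLISA; IC50 from 4-parameter logistic fits.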

[1] = compound pre-incubated 1 hour with recombinant human IL-1β

Compound | IC50 | IC50 [1]
C[C@@H](c1c[nH]c2cccc(F)c12)[C@@H]1NC(=O)[C@@H]2C[C@H](F)CN2C(=O)CNC(=O)[C@H](Cc2ccc(C(=O)O)cc2)NC(=O)[C@H](Cc2ccnnc2)NC(=O)[C@H](Cc2ccc(-c3ccc(C(=O)O)cc3)cc2)NC(=O)[C@H]2C[C@@H](Cc3ccc(F)cc3)CN2C(=O)CNC(=O)[C@H](CCN)NC(=O)[C@H](CCC(N)=O)NC(=O)[C@H](Cc2cncnc2)NC(=O)C(C)(C)NC(=O)[C@H](Cc2c[nH]c3ccccc23)NC(=O)[C@H](CCC(=O)O)NC(=O)C(C)(C)NC1=O [Example 116] (cyclo([Bip(4'-COOH)][Ala(4-Pyridazinyl)][Phe(4-COOH)]G[Pro(cis-4-F)][Trp(βS-Me,4-F)][Aib]EW[Aib][Ala(pyrimidin-5-yl)]Q[Dab]G[dPro(4R-Bzl(4-F))])) | 40 pM | –
C[C@@H](c1c[nH]c2cccc(F)c12)[C@@H]1NC(=O)[C@@H]2C[C@H](F)CN2C(=O)CNC(=O)[C@H](Cc2ccc(C(=O)O)cc2)NC(=O)[C@H](Cc2ccncc2)NC(=O)[C@H](Cc2ccc(-c3ccc(C(=O)O)cc3)cc2)NC(=O)[C@H]2C[C@@H](Cc3ccc(F)cc3)CN2C(=O)CNC(=O)[C@H](CCN)NC(=O)[C@H](CCC(N)=O)NC(=O)[C@H](Cc2c[nH]cn2)NC(=O)C(C)(C)NC(=O)[C@H](Cc2c[nH]c3ccccc23)NC(=O)[C@H](CCC(=O)O)NC(=O)C(C)(C)NC1=O [Example 276] (cyclo([Bip(4'-COOH)][4Pal][Phe(4-COOH)]G[Pro(cis-4-F)][Trp(βS-Me,4-F)][Aib]EW[Aib]HQ[Dab]G[dPro(4R-Bzl(4-F))])) | – | 17 pM
C[C@@H](c1c[nH]c2cccc(F)c12)[C@@H]1NC(=O)[C@@H]2C[C@H](F)CN2C(=O)CNC(=O)[C@H](Cc2ccc(C(=O)O)cc2)NC(=O)[C@H](Cc2ccncc2)NC(=O)[C@H](Cc2ccc(-c3ccccc3)cc2)NC(=O)[C@H]2C[C@@H](Cc3ccncc3)CN2C(=O)CNC(=O)[C@H](CCN)NC(=O)[C@H](CCC(N)=O)NC(=O)[C@H](Cc2cncnc2)NC(=O)[C@@](C)(CC(=O)O)NC(=O)[C@H](Cc2c[nH]c3ccccc23)NC(=O)[C@H](CO)NC(=O)C(C)(C)NC1=O [Example 333] (cyclo([Bip][4Pal][Phe(4-COOH)]G[Pro(cis-4-F)][Trp(βS-Me,4-F)][Aib]SW[d(αMeD)][Ala(pyrimidin-5-yl)]Q[Dab]G[dPro(4R-(4-pyridylmethyl))])) | 22 pM | –
C[C@@H](c1c[nH]c2cccc(F)c12)[C@@H]1NC(=O)[C@@H]2C[C@H](F)CN2C(=O)CNC(=O)[C@H](Cc2ccc(C(=O)O)cc2)NC(=O)[C@H](CC23CC(C2)C3)NC(=O)[C@H](Cc2ccc(-c3ncc(C(=O)O)cn3)cc2)NC(=O)[C@H]2C[C@@H](Cc3ccncc3)CN2C(=O)CNC(=O)[C@H](CCN)NC(=O)[C@H](CCC(N)=O)NC(=O)[C@H](Cc2cncnc2)NC(=O)[C@](C)(CC(=O)O)NC(=O)[C@H](Cc2c[nH]c3ccccc23)NC(=O)[C@H](CO)NC(=O)C(C)(C)NC1=O [Example 188] (cyclo([Phe(4-(5-CO2H-2-pyrimidyl))][Ala(1-bicyclo(1.1.1)pentyl)][Phe(4-COOH)]G[Pro(cis-4-F)][Trp(βS-Me,4-F)][Aib]SW[αMeD][Ala(pyrimidin-5-yl)]Q[Dab]G[dPro(4R-(4-pyridylmethyl))])) | 20 pM | –
C[C@@H](c1c[nH]c2cccc(F)c12)[C@@H]1NC(=O)[C@@H]2C[C@H](F)CN2C(=O)CNC(=O)[C@H](Cc2ccc(C(=O)O)cc2)NC(=O)[C@H](Cc2ccncc2)NC(=O)[C@H](Cc2ccc(-c3ccc(C(=O)O)cc3)cc2)NC(=O)[C@H]2[C@@H](Cc3ccc(-c4cccnc4)cc3)CCN2C(=O)CNC(=O)[C@H](CCN)NC(=O)[C@H](CCC(N)=O)NC(=O)[C@H](Cc2cncnc2)NC(=O)C(C)(C)NC(=O)[C@H](Cc2c[nH]c3ccccc23)NC(=O)[C@H](CCC(=O)O)NC(=O)C(C)(C)NC1=O [Example 56] (cyclo([Bip(4'-COOH)][4Pal][Phe(4-COOH)]G[Pro(cis-4-F)][Trp(βS-Me,4-F)][Aib]EW[Aib][Ala(pyrimidin-5-yl)]Q[Dab]G[X48])) | 22 pM | –
CC(=O)NCCOc1ccc(C[C@@H]2NC(=O)[C@H]3C[C@@H](Cc4ccncc4)CN3C(=O)CNC(=O)[C@H](CCN)NC(=O)[C@H](CCC(N)=O)NC(=O)[C@H](Cc3cncnc3)NC(=O)C(C)(C)NC(=O)[C@H](Cc3c[nH]c4ccccc34)NC(=O)[C@H](CCC(=O)O)NC(=O)C(C)(C)NC(=O)[C@H]([C@@H](C)c3c[nH]c4cccc(F)c34)NC(=O)[C@@H]3C[C@H](F)CN3C(=O)CNC(=O)[C@H](Cc3ccc(C(=O)O)cc3)NC(=O)[C@H](Cc3ccncc3)NC2=O)cc1 [Example 49] (cyclo([AEF](Ac)[4Pal][Phe(4-COOH)]G[Pro(cis-4-F)][Trp(βS-Me,4-F)][Aib]EW[Aib][Ala(pyrimidin-5-yl)]Q[Dab]G[dPro(4R-(4-pyridylmethyl))])) | 47 pM | –
C[C@@H](c1c[nH]c2cccc(F)c12)[C@@H]1NC(=O)[C@@H]2C[C@H](F)CN2C(=O)CNC(=O)[C@H](Cc2ccc(C(=O)O)cc2)NC(=O)[C@H](Cc2ccncc2)NC(=O)[C@H](Cc2ccc(-c3ccc(C(=O)O)cc3)cc2)NC(=O)[C@H]2[C@@H](Cc3ccc(F)cc3)CCN2C(=O)CNC(=O)[C@H](CCN)NC(=O)[C@H](CCC(N)=O)NC(=O)[C@H](CN2CCOCC2)NC(=O)[C@@](C)(CC(=O)O)NC(=O)[C@H](Cc2c[nH]c3ccccc23)NC(=O)[C@H](CO)NC(=O)C(C)(C)NC1=O [Example 286] (cyclo([Bip(4'-COOH)][4Pal][Phe(4-COOH)]G[Pro(cis-4-F)][Trp(βS-Me,4-F)][Aib]SW[d(αMeD)][Ala(morpholin-4-yl)]Q[Dab]G[dPro(3S-(4-F-Bn))])) | – | 10 pM
CC(=O)NCCOc1ccc(C[C@@H]2NC(=O)[C@H]3C[C@@H](Cc4ccc(F)cc4)CN3C(=O)CNC(=O)[C@H](CN)NC(=O)[C@H](CCC(N)=O)NC(=O)[C@H](Cc3cncnc3)NC(=O)C(C)(C)NC(=O)[C@H](Cc3c[nH]c4ccccc34)NC(=O)[C@H](CCC(=O)O)NC(=O)C(C)(C)NC(=O)[C@H]([C@@H](C)c3c[nH]c4cccc(F)c34)NC(=O)[C@@H]3C[C@H](F)CN3C(=O)CNC(=O)[C@H](Cc3ccc(C(=O)O)cc3)NC(=O)[C@H](Cc3ccncc3)NC2=O)cc1 [Example 11] (cyclo([AEF](Ac)[4Pal][Phe(4-COOH)]G[Pro(cis-4-F)][Trp(βS-Me,4-F)][Aib]EW[Aib][Ala(pyrimidin-5-yl)]Q[Dap]G[dPro(4R-Bzl(4-F))])) | 45 pM | –
CC(=O)NCCOc1ccc(C[C@@H]2NC(=O)[C@H]3[C@@H](Cc4ccc(F)cc4)CCN3C(=O)CNC(=O)[C@H](CCN)NC(=O)[C@H](CCC(N)=O)NC(=O)[C@H](CC3CCOCC3)NC(=O)[C@@](C)(CC(=O)O)NC(=O)[C@H](Cc3c[nH]c4ccccc34)NC(=O)[C@H](CO)NC(=O)C(C)(C)NC(=O)[C@H]([C@@H](C)c3c[nH]c4cccc(F)c34)NC(=O)[C@@H]3C[C@H](F)CN3C(=O)CNC(=O)[C@H](Cc3ccc(C(=O)O)cc3)NC(=O)[C@H](Cc3ccncc3)NC2=O)cc1 [Example 372] (cyclo([AEF](Ac)[4Pal][Phe(4-COOH)]G[Pro(cis-4-F)][Trp(βS-Me,4-F)][Aib]SW[d(αMeD)][Ala(4-THP)]Q[Dab]G[dPro(3S-(4-F-Bn))])) | 9 pM | –
C[C@@H](c1c[nH]c2cccc(F)c12)[C@@H]1NC(=O)[C@@H]2C[C@H](F)CN2C(=O)CNC(=O)[C@H](Cc2ccc(C(=O)O)cc2)NC(=O)[C@H](Cc2ccncc2)NC(=O)[C@H](Cc2ccc(-c3ccc(C(=O)O)cc3)cc2)NC(=O)[C@H]2[C@@H](Cc3ccncc3)CCN2C(=O)CNC(=O)[C@H](CCN)NC(=O)[C@H](CCC(N)=O)NC(=O)[C@H](Cc2cncnc2)NC(=O)C(C)(C)NC(=O)[C@H](Cc2c[nH]c3ccccc23)NC(=O)[C@H](CO)NC(=O)C(C)(C)NC1=O [Example 326] (cyclo([Bip(4'-COOH)][4Pal][Phe(4-COOH)]G[Pro(cis-4-F)][Trp(βS-Me,4-F)][Aib]SW[Aib][Ala(pyrimidin-5-yl)]Q[Dab]G[X4])) | 11 pM | –
C[C@@H](c1c[nH]c2cccc(F)c12)[C@@H]1NC(=O)[C@@H]2C[C@H](F)CN2C(=O)CNC(=O)[C@H](Cc2ccc(C(=O)O)cc2)NC(=O)[C@H](CC23CC(C2)C3)NC(=O)[C@H](Cc2ccc(-c3ccccc3)cc2)NC(=O)[C@H]2C[C@@H](Cc3ccncc3)CN2C(=O)CNC(=O)[C@H](CCN)NC(=O)[C@H](CCC(N)=O)NC(=O)[C@H](Cc2cncnc2)NC(=O)[C@@](C)(CC(=O)O)NC(=O)[C@H](Cc2c[nH]c3ccccc23)NC(=O)[C@H](CO)NC(=O)C(C)(C)NC1=O [Example 343] (cyclo([Bip][Ala(1-bicyclo(1.1.1)pentyl)][Phe(4-COOH)]G[Pro(cis-4-F)][Trp(βS-Me,4-F)][Aib]SW[d(αMeD)][Ala(pyrimidin-5-yl)]Q[Dab]G[dPro(4R-(4-pyridylmethyl))])) | 26 pM | –
C[C@@H](c1c[nH]c2cccc(F)c12)[C@@H]1NC(=O)[C@@H]2C[C@H](F)CN2C(=O)CNC(=O)[C@H](Cc2ccc(C(=O)O)cc2)NC(=O)[C@H](Cc2ccncc2)NC(=O)[C@H](Cc2ccc(-c3ccc(C(=O)O)cc3)cc2)NC(=O)[C@H]2C[C@@H](Cc3ccc(F)cc3)CN2C(=O)CNC(=O)[C@H](CCN)NC(=O)[C@H](CCC(N)=O)NC(=O)[C@H](CCC[N+](C)(C)C)NC(=O)C(C)(C)NC(=O)[C@H](Cc2c[nH]c3ccccc23)NC(=O)[C@H](CO)NC(=O)C(C)(C)NC1=O [Example 297] (cyclo([Bip(4'-COOH)][4Pal][Phe(4-COOH)]G[Pro(cis-4-F)][Trp(βS-Me,4-F)][Aib]SW[Aib][X25]Q[Dab]G[dPro(4R-Bzl(4-F))])) | – | 22 pM
C[C@@H](c1c[nH]c2cccc(F)c12)[C@@H]1NC(=O)[C@@H]2C[C@H](F)CN2C(=O)CNC(=O)[C@H](Cc2ccc(C(=O)O)cc2)NC(=O)[C@H](CC23CC(C2)C3)NC(=O)[C@H](Cc2ccc(-c3ccc(C(=O)O)cc3)cc2)NC(=O)[C@H]2[C@@H](Cc3ccncc3)CCN2C(=O)CNC(=O)[C@H](CCN)NC(=O)[C@H](CCC(N)=O)NC(=O)[C@H](Cc2ccncn2)NC(=O)[C@@](C)(CC(=O)O)NC(=O)[C@H](Cc2c[nH]c3ccccc23)NC(=O)[C@H](CO)NC(=O)C(C)(C)NC1=O [Example 284] (cyclo([Bip(4'-COOH)][Ala(1-bicyclo(1.1.1)pentyl)][Phe(4-COOH)]G[Pro(cis-4-F)][Trp(βS-Me,4-F)][Aib]SW[d(αMeD)][X6]Q[Dab]G[X4])) | – | 15 pM
